# Target: human PDE2A1 (Homo sapiens (Human), UniProt O00408)
# Experiment: IMAP FP PDE selectivity panel, human PDE2A1
# Format: biochemical
# Settings: Human PDE2, Lab B; read-out: Human PDE2 Ki (nM) - Lab B
# Method in brief: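 IMAP FP format: substrate 50 nM FAM-cAMP plus 1000 nM cGMP, enzyme (insect-cell GST-tagged human PDE2A1) at ~20% conversion, 60 min reaction at room temperature. Apparent inhibition constants calculated from parallel/perpendicular fluorescence with KM 10,000 nM.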
# human PDE2A1, sequence (O00408 other isoform, or with tags, fused parts or gaps): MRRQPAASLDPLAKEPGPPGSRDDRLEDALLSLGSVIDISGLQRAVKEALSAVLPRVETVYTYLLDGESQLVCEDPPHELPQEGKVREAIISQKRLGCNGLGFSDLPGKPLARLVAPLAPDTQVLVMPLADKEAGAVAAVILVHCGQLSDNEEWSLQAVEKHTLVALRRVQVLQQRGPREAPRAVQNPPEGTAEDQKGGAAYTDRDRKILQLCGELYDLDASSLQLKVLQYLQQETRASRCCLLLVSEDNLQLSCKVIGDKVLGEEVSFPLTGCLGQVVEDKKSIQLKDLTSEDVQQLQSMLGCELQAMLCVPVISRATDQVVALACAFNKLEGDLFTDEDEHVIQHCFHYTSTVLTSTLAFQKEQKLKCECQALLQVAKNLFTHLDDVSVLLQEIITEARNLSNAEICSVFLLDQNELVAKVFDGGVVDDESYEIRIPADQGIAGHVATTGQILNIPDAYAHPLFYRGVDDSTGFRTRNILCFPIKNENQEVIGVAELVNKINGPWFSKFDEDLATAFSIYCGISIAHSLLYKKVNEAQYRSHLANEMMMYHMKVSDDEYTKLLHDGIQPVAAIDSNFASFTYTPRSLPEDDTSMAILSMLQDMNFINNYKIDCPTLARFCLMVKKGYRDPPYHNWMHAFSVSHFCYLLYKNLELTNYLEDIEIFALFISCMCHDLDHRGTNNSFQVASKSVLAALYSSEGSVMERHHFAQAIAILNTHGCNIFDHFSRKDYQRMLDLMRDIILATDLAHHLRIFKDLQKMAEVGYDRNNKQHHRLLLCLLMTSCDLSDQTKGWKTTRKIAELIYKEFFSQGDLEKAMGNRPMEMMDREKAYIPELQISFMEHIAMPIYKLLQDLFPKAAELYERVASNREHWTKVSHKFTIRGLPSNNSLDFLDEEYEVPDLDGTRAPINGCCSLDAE
row,Ki [nM],SMILES
1,3.8,"Cc1nc(C(=O)N[C@@H](c2ccc(C3CC3)cc2)C2(C)CC2)cc(=O)[nH]1 [Example 658, N-[(R)-(4-cyclopropylphenyl)(1-methylcyclopropyl)methyl]-2-methyl-6-oxo-1,6-dihydropyrimidine-4-carboxamide]"
2,36,"CC1([C@@H](NC(=O)c2cc(=O)[nH]c(-c3ncccn3)n2)c2ccc(OC(F)F)cc2)CC1 [Example 584, N-[(R)-[4-(difluoromethoxy)phenyl](1-methylcyclopropyl)methyl]-6-oxo-1,6-dihydro-2,2′-bipyrimidine-4-carboxamide]"
3,148,CC[C@@H](NC(=O)c1cc(=O)[nH]c(C)n1)c1ccc(C(F)F)c(F)c1 [Example 653]
4,7.2,"CCc1nc(C(=O)N[C@@H](c2ccc(C(F)(F)F)c(F)c2)C2CC2)cc(=O)[nH]1 [Example 603, N-{(R)-cyclopropyl[3-fluoro-4-(trifluoromethyl)phenyl]methyl}-2-ethyl-6-oxo-1,6-dihydropyrimidine-4-carboxamide]"
5,39,"CC1([C@@H](NC(=O)c2cc(=O)[nH]c(-c3ncccn3)n2)c2ccc3c(c2)OC(F)(F)O3)CC1 [Example 585, N-[(R)-(2,2-difluoro-1,3-benzodioxol-5-yl)(1-methylcyclopropyl)methyl]-6-oxo-1,6-dihydro-2,2′-bipyrimidine-4-carboxamide]"
6,3.1,"Cc1nc(C(=O)N[C@@H](c2ccc(OC(F)(F)F)cc2)C(C)(C)O)cc(=O)[nH]1 [Example 724, N-{(1S)-2-hydroxy-2-methyl-1-[4-(trifluoromethoxy)phenyl]propyl}-2-methyl-6-oxo-1,6-dihydropyrimidine-4-carboxamide]"
7,96,"O=C(N[C@@H]1CCCc2cc(C(F)(F)F)ccc21)c1cc(=O)[nH]c(-c2ccccc2)n1 [Example 552, 6-oxo-2-phenyl-N-[(1R)-6-(trifluoromethyl)-1,2,3,4-tetrahydronaphthalen-1-yl]-1,6-dihydropyrimidine-4-carboxamide]"
8,34,"Cc1nc(C(=O)N[C@@H](c2ccc(C(F)F)cc2)C(C)C)cc(=O)[nH]1 [Example 648, N-{(1R)-1-[4-(difluoromethyl)phenyl]-2-methylpropyl}-2-methyl-6-oxo-1,6-dihydropyrimidine-4-carboxamide]"
9,2.6,"Cc1nc(C(=O)NC(c2ccc(S(F)(F)(F)(F)F)cc2F)C(C)(C)C)cc(=O)[nH]1 (single isomer, unassigned) [Example 720, (R)- or (S)-N-(1-(2-fluoro-4-(pentafluoro-λ^6-sulfanyl)phenyl)-2,2-dimethylpropyl)-2-methyl-6-oxo-1,6-dihydropyrimidine-4-carboxamide]"
10,7.7,"CCC(C)(NC(=O)c1cc(=O)[nH]c(C)n1)c1ccc(C(F)(F)F)cc1F (single isomer, unassigned) [Example 719, (R)- or (S)-N-(2-(2-fluoro-4-(trifluoromethyl)phenyl)butan-2-yl)-2-methyl-6-oxo-1,6-dihydropyrimidine-4-carboxamide]"
11,5.2,"CC(C)[C@@H](NC(=O)c1cc(=O)[nH]c(-c2ccccc2)n1)c1ccc(OC(F)F)cc1 [Example 543, N-{(1R)-1-[4-(difluoromethoxy)phenyl]-2-methylpropyl}-6-oxo-2-phenyl-1,6-dihydropyrimidine-4-carboxamide]"
12,4.4,"Cc1nc(C(=O)N[C@](C)(CO)c2ccc(C(F)(F)F)cc2Cl)cc(=O)[nH]1 [Example 640, N-{(1S)-1-[2-chloro-4-(trifluoromethyl)phenyl]-2-hydroxy-1-methylethyl}-2-methyl-6-oxo-1,6-dihydropyrimidine-4-carboxamide]"
13,8.9,"CC(C)(C)[C@@H](NC(=O)c1cc(=O)[nH]c(-c2ncccn2)n1)c1ccc(C2CC2)cc1 [Example 557, N-[(1R)-1-(4-cyclopropylphenyl)-2,2-dimethylpropyl]-6-oxo-1,6-dihydro-2,2′-bipyrimidine-4-carboxamide]"

# Reference: patent publication US9815796B2 (Merck Sharp & Dohme Corp., priority 2013, dated 2017)
